Where “and” joins values, the source holds several entries; their conditions need not be identical. Equal entries are not always repeated. Where two headings read alike, the source gives them in different places.

For series [1], the target named is P-Glycoprotein (Homo sapiens (Human), UniProt P08183). The series can be described thus: Digoxin bidirectional MDR1-MDCK permeability, Compound I-1 as an inhibitor. Conditions: Surf.
Protocol: (§1) MDR1-MDCK cells were grown to confluence for 5-10 days on 1 μm filters in 24-well plate. Aliquots of DMSO solute stocks were diluted into Hank's balanced salt solution (HBSS) pH 7.4 containing 25 mM HEPES+−0.05% PS80 to give 0.5, 1.5 or 5.0 μM solute concentrations. Final concentrations of DMSO in the assayed samples ranged from 0.005% for the 0.5 μM concentration to 0.05% for the 5 μM concentration. […] The solute containing donor solutions were transferred to either the apical or basolateral chamber of the permeability diffusion apparatus. Receiver solutions consisted of Hank's balanced salt solution (HBSS) pH 7.4 containing 25 mM HEPES+0.05% PS80. The entire receiver solution was removed at 20 minute intervals and manually replaced with fresh buffer. The concentration of transported solute during each sampling interval was determined by HPLC/UV/MS. The standard curve was produced from serial dilutions of the dosing solution. D0 was a 50 μl aliquot of dosing solution from the donor well diluted with 450 μl of HBSS. The standard curve was produced from serial dilutions of the dosing solution (1:10, 1:25, 1:50, 1:100, 1:500 and 1:1000). Permeability coefficients were calculated for each sampling interval using the following equation:
(§2) [formula] Where VD=volume of donor (0.4 ml for Ap_Bl flux and 1.0 ml for Bl_Ap flux), A=surface area of the filter on which the monolayer was grown (0.31 cm2), MD(0)=mass in the donor at the beginning of the ith sampling interval, MR (t)=mass in the receiver at time t, and _t is the experimental interval (20 minutes). The apparent permeability, Papp, is then calculated as the average:
(§3) The average and standard deviation from the intervals is reported. Mass balance in the system was ascertained by comparing the sum of total transported solute and remaining donor solute with the starting mass of solute and is expressed as a percentage of donor solute at time zero. […] At the termination of the experiment, the cell monolayers are stored in the cold until the data is analyzed. After analysis, if mass balance falls below 70% in a given experiment, those monolayers are retrieved and extracted with acetonitrile. After separation of cellular debris, the extract is analyzed for recoverable solute of interest. […] All determinations were performed in duplicate.
Series [2] has as its target CYP1A2 (Homo sapiens (Human), UniProt P05177). Briefly: Cyp enzyme inhibition assay in human liver microsomes, CYP1A2. Type of series: in vitro ADME. To be noted: CYP1A2, substrate phenacetin. As to the method:
The ability of the compound I-1 to inhibit human metabolizing enzymes CYP3A4, CYP2C9, […], CYP2C19 and CYP1A2, was assessed using those enzymes found collectively in human liver microsomes. The test compound I-1 was prepared as a solution in DMSO or acetonitrile and plated in duplicate rows of a 96-well plate (Nunc) for a final assay concentration of 40 μM in 0.2% DMSO (or 2% acetonitrile) in the first column and serially diluted two-fold going down the row. A known selective inhibitor of a given CYP enzyme listed in Table 8 was selected as the appropriate positive control. For each CYP enzyme inhibition assay, an appropriate enzyme-substrate mixture was prepared to afford a final assay concentration of 75 mM KPO4/pH 7.4, 6.5 mM MgCl2, 0.25 mg/mL pooled male and female human liver microsome (CellzDirect lot HMMC-PL020) with the amounts of the appropriate substrate for each CYP enzyme assay given in Table 8. The enzyme-substrate mixture was added to columns 1 through 10 and column 11 served as a negative control with enzyme solution lacking substrate. A solution of NADPH (Calbiochem) was then added to all rows except for one where NADPH would be added after the incubation period, in order to detect NADPH-independent non-CYP-mediated metabolism. The plate was briefly vortexed and left to shake in a 37° C. water bath for 20 minutes. […]

Series [3] deals with CYP3A4 (Homo sapiens (Human), UniProt P08684). The series can be described thus: Time dependant inhibition in human liver microsomes, CYP3A4. Conditions: CYP3A4, 10 μM, pre-incubation 0-30 minutes. In kind it is in vitro ADME. As to the method: For each CYP isoform tested, 10 μM Compound I-1 was pre-incubated with pooled male and female human liver microsomes with NADPH in a 37° C. shaking water bath in duplicate to afford a final pre-incubation assay concentration of 100 mM KPO4/pH 7.4, 10 mM MgCl2, 2 mg/mL of human liver microsome (CellzDirect lot HLM HMMC-PL020) and 1 mM NADPH (Calbiochem). At each pre-incubation time point (0, 5, 10, 20, and 30 minutes) 20 μL was removed and placed in a second 96 well plate on ice. After all pre-incubation time points were collected 180 uL of additional human microsome liver preparation containing the appropriate CYP specific substrate at its Km concentration listed in Table 11 plus NADPH, was added to each time point. The samples were incubated for an additional 10 minutes in a 37° C. shaking water bath and then quenched with 75:25 acetonitrile (ACN):water containing the appropriate internal standards listed in Table 11. After brief mixing, the plate was centrifuged and the supernatant removed for analysis by LC/MS/MS (API 4000 Qtrap) for the formation of 6-hydroxy-testosterone (CYP3A4), 4-hydroxy-mephenyloin (CYP2C19), or 6-hydroxy-taxol (CYP2C8). […] Consistent with Example 5, Compound I-1 did inhibit CYP2C8-mediated metabolite formation at 10 μM, but not in a time dependent manner.

Series [4] concerns P-glycoprotein (MDR1). Briefly: Bidirectional MDR1-MDCK permeability, Compound I-1 as a substrate. To be noted: dog, Surf.
Protocol: as §1, §2, §3
The test system of series [5] is MDR1-MDCK cells. The description is as above. Conditions: 5 μM, Surf.
Protocol: as §1, §2, §3
The target in series [6] is CYP2C8 (Homo sapiens (Human), UniProt P10632). The series can be described thus: Inhibitory constant KI in human liver microsomes, CYP2C8. In kind it is in vitro ADME. To be noted: CYP2C8, global non-linear regression. As to the method: A 2 mM stock of Compound I-1 was prepared in acetonitrile (ACN) and serially diluted 2-fold from 2000 μM to 15.63 μM in ACN. […] Individual human liver microsome preparations containing the substrate were then incubated with Compound I-1 (final concentration range 40 μM to 0.31 μM of Compound I-1) for a final incubation concentration of 0.5 mg/mL microsome, 75 mM KPO4, 6.5 mM MgCl2, 1 mM NADPH and 2% acetonitrile (ACN). The samples were incubated in a 37° C. shaking water bath for 20 minutes then quenched with ACN:water (75:25) containing internal standards propranolol at 0.3 ng/mL and cortisone at 0.3 ng/mL. After brief mixing, the plate was centrifuged and the supernate removed for analysis by LC/MS/MS (API 4000 Qtrap) for formation of 6-hydroxy-testosterone (CYP3A4), 4-hydroxy-mephenyloin (CYP2C19) or hydroxy-taxol (CYP2C8). The data was analyzed using global non-linear regression software (GraphPad Prism) and the overall fit of the data (R^2) was used to determine if Compound I-1 was a competitive, non-competitive, or uncompetitive inhibitor. In addition the data was plotted as a Lineweaver-Burke graph (1/V versus 1/S, where V is the […] and S is the substrate concentration) for each inhibitor concentration. Based on the location of convergence (competitive and non-competitive) or non convergence (uncompetitive) of the plots at each inhibitor concentration, the type of inhibition was determined.
Global non-linear regression allows analysis of all the individual inhibitor curves simultaneously and determines the best fit value for shared parameters between the data sets, in this case KI (or KI′). The results of the global nonlinear analysis of Compound I-1 inhibition of the CYP450 isoforms 3A4, 2C19 and 2C8 are shown in Table 12.
Background: Microsomes from liver hold many membrane-bound enzymes, among them those of drug oxidation.

The target in series [7] is FLT3 (N841I) (Homo sapiens (Human), UniProt P36888, N841I). Briefly: biochemical. Type of series: binding.
Protocol: The liganded beads were blocked with excess biotin and washed with blocking buffer (SeaBlock (Pierce), 1% BSA, 0.05% Tween 20, 1 mM DTT) to remove unbound ligand and to reduce non-specific binding. […] Test compounds were prepared as 100× stocks in DMSO and rapidly diluted into the aqueous environment. DMSO was added to control assays lacking a test compound. […] The kinase concentration in the eluates was measured by quantitative PCR. Each kinase was tested individually against each compound. Kds were determined using eleven serial threefold dilutions.
Where [8] appears, read: Table 17, Digoxin 1 μM + Compound I-1 5.0 μM.
The mark [9] stands for this setting: preliminary experiment, Digoxin 1 μM + Compound I-1 0.5 μM.
[10] abbreviates: preliminary experiment, Digoxin 1 μM + Compound I-1 1.5 μM.
[11] abbreviates: preliminary experiment, Digoxin 1 μM + Compound I-1 5.0 μM.

Sequence of P-Glycoprotein (P08183 whole entry): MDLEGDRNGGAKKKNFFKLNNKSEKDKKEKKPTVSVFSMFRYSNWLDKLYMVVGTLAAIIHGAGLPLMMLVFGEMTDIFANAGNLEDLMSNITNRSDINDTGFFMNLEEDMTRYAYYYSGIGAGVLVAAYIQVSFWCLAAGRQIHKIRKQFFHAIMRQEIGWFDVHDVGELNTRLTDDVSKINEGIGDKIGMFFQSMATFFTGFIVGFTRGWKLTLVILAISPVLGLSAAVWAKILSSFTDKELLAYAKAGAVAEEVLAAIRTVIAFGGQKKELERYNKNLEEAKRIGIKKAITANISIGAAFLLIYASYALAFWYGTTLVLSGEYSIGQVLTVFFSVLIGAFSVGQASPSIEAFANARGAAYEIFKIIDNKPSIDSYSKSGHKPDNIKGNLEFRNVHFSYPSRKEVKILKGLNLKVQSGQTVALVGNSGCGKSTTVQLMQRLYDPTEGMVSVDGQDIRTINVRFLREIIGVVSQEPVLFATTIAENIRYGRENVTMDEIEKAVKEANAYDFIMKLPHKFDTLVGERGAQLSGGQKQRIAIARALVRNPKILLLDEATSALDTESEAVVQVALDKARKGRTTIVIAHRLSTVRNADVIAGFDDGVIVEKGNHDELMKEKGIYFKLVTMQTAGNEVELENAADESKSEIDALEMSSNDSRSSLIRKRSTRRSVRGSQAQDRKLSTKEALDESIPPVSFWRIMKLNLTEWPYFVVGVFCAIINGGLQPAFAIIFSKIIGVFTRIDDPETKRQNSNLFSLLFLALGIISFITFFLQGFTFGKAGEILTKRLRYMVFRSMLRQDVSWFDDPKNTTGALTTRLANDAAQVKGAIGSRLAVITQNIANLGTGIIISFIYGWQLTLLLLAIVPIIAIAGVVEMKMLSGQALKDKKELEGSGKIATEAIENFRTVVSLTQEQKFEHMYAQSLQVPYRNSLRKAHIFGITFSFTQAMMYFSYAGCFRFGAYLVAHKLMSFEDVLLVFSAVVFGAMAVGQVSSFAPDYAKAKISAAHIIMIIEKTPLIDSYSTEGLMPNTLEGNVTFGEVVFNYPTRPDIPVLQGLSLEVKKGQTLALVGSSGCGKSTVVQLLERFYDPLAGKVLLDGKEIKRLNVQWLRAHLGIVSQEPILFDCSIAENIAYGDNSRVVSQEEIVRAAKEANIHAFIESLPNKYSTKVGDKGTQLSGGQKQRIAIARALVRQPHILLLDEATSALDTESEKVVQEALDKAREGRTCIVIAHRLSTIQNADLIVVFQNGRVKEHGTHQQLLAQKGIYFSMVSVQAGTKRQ
Sequence of CYP2C8 (P10632 whole entry): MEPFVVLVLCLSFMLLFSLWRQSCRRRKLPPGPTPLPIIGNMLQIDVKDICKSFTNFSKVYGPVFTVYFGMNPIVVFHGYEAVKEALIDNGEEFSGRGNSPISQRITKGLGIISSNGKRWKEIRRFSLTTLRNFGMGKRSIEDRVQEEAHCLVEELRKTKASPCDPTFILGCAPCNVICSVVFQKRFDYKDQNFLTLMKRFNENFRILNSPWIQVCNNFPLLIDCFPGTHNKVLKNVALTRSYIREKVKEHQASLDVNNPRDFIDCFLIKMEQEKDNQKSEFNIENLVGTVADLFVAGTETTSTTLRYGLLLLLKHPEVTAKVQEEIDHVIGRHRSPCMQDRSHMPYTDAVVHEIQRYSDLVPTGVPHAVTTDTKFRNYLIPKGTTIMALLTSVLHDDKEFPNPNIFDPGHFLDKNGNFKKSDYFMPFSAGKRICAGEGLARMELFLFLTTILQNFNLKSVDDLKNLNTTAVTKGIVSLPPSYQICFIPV
Sequence of CYP1A2 (P05177 whole entry): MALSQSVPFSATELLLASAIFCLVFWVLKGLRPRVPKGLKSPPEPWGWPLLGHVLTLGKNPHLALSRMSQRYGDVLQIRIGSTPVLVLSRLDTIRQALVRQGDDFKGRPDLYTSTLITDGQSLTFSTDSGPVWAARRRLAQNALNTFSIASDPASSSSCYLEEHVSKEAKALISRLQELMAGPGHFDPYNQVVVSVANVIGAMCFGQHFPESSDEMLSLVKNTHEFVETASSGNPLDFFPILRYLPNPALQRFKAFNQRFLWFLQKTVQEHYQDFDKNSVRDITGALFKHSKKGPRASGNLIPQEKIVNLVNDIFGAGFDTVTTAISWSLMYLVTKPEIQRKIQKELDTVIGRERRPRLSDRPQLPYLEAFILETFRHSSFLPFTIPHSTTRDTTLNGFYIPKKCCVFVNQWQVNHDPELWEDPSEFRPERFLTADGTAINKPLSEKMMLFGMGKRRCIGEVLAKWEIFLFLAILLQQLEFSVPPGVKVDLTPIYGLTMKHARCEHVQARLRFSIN
Sequence of CYP3A4 (P08684 whole entry, canonical isoform): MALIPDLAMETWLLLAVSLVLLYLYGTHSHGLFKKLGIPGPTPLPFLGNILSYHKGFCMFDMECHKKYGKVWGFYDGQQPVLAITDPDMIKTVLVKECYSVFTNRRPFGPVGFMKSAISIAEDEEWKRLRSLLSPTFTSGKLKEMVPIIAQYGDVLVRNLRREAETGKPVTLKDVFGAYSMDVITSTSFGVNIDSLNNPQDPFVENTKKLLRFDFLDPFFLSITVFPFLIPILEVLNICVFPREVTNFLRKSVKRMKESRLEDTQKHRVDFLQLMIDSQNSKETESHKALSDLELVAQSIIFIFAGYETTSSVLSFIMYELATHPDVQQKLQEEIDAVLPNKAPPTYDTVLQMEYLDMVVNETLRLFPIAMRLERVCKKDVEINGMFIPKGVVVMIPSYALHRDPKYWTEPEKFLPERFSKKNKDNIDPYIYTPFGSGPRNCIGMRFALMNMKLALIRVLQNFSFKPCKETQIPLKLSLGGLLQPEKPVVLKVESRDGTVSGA

Turning to `CC(C)(CO)c1cc(NC(=O)Nc2ccc(-c3cn4c(n3)sc3cc(OCCN5CCOCC5)ccc34)cc2)no1` [Compound I-1, 1-[5-(2-hydroxy-1,1-dimethyl-ethyl)-isoxazol-3-yl]-3-{4-[7-(2-morpholin-4-yl-ethoxy)-benzo[d]imidazo[2,1-b]thiazol-2-yl]-phenyl}-urea], the “Digoxin Mass Bal (AP→BL)” value in series [1] (setting [8]) was found to be 104%; in series [1] (setting [9]), 98%; in series [1] (setting [10]), 98%; in series [1] (setting [11]), 93%. The “Digoxin Mass Bal (BL→AP)” value in series [1] (setting [8]) came to 98%; in series [1] (setting [9]), 91%; in series [1] (setting [10]), 94%; in series [1] (setting [11]), 99%. In addition, in series [2], the IC50 was > 40 µM. Besides, the Time dependant inhibition entry in series [3] was “not a time dependant inhibitor”. In series [4] (MDCK-MDR1, pH 7.4, Assymetry Index), the efflux ratio at 5 μM came to 1.2. In series [4] (MDCK-MDR1, pH 7.4, PeAP→BL), this compound registered a Papp A→B at 5 μM of 5.1 ×10⁻⁶ cm/s. In series [5], the “Assymetry Index” value came out at 1.7. Moreover, the PeAP→BL in series [5] was 2.81 ×10⁻⁶ cm/s. Also, in series [5], the PeBL→AP was 6.31 ×10⁻⁶ cm/s and 4.67 ×10⁻⁶ cm/s. The Ki in series [6] (read-out: Best Fit KI, Competitive) came to 22.1 µM; in series [6] (read-out: Best Fit KI, Non-competitive) it was 60.8 µM; in series [6] (read-out: Best Fit KI′, Uncompetitive), 37.7 µM. Besides, in series [7], the Kd is 0.00077 µM.

What is called IC50 is the point on the concentration scale where inhibition reaches its midpoint. The low end stands for greater potency in that assay, the high end for weaker potency in that assay. The term efflux ratio denotes the permeability from basolateral to apical divided by that in the opposite direction, in the common usage. The Papp A→B is how fast a substance crosses the layer from the apical side. Usually Ki stands for a dissociation constant, usually derived from enzyme kinetics or from competition with a known ligand. A word on the Kd: it is the free concentration of one partner at which half of the binding sites on the other are occupied at equilibrium, for simple one-to-one binding.

Values taken from patent publication US8551963B2, “Imidazolothiazole compounds and methods of use thereof” (Ambit Biosciences Corporation, priority 2008, dated 2013).
